Results taken from PubChem BioAssay AID1963838 (Molecular Pharmacology Branch, DTP, NCI, 2024).

System: 855422-203-R-J1-PDC complex spheroid viability
Assay: Anticancer human tumor 855422-203-R-J1-PDC patient-derived bladder carcinoma cell line growth inhibition [POLQ]
Details: for IC50: curve of first compound; for viability, T/C: stronger effect = lower value
In short: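 Complex spheroid viability model combining PDC tumour cells with endothelial (HUVEC) and MSC stromal cells. Novobiocin, ART-558 or RP6685 were tested singly and in combination with standard and investigational anticancer drugs. Each was titrated in half-log steps from near clinical Cmax, or from 10 microM where Cmax was unknown.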
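Also: spheroids exposed to compounds for seven days before readout.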

CC(=O)O[C@H]1C(=O)[C@@]2(C)[C@H]([C@H](OC(=O)c3ccccc3)[C@]3(O)C[C@H](OC(=O)[C@H](O)[C@@H](NC(=O)c4ccccc4)c4ccccc4)C(C)=C1C3(C)C)[C@]1(OC(C)=O)CO[C@@H]1C[C@@H]2O + Cc1cccc(N(C)C(=O)C2C(O)CCN2c2nc(C)cc(C(F)(F)F)c2C#N)c1
IC50 (second compound 0.0316 µM): < 9.49 nM | IC50 (second compound 0.1 µM): < 9.49 nM | IC50 (second compound 0.316 µM): < 9.49 nM | IC50 (second compound 1 µM): < 9.49 nM | IC50 (second compound 3.16 µM): < 9.49 nM | IC50 (second compound 10 µM): < 9.49 nM | viability, T/C (second compound 0.0316 µM, first compound 0.00949 µM): 13.6% | viability, T/C (second compound 0.0316 µM, first compound 0.03 µM): 9.26% | viability, T/C (second compound 0.0316 µM, first compound 0.0949 µM): 11.7% | viability, T/C (second compound 0.0316 µM, first compound 0.3 µM): 9.48% | viability, T/C (second compound 0.0316 µM, first compound 0.949 µM): 11.1% | viability, T/C (second compound 0.0316 µM, first compound 3 µM): 12.6% | viability, T/C (second compound 0.1 µM, first compound 0.00949 µM): 16.4% | viability, T/C (second compound 0.1 µM, first compound 0.03 µM): 10.2% | viability, T/C (second compound 0.1 µM, first compound 0.0949 µM): 9.03% | viability, T/C (second compound 0.1 µM, first compound 0.3 µM): 7.34% | viability, T/C (second compound 0.1 µM, first compound 0.949 µM): 9.39% | viability, T/C (second compound 0.1 µM, first compound 3 µM): 8.97% | viability, T/C (second compound 0.316 µM, first compound 0.00949 µM): 11.8% | viability, T/C (second compound 0.316 µM, first compound 0.03 µM): 10.8% | viability, T/C (second compound 0.316 µM, first compound 0.0949 µM): 8.92% | viability, T/C (second compound 0.316 µM, first compound 0.3 µM): 9.41% | viability, T/C (second compound 0.316 µM, first compound 0.949 µM): 10.9% | viability, T/C (second compound 0.316 µM, first compound 3 µM): 9.92% | viability, T/C (second compound 1 µM, first compound 0.00949 µM): 9.84% | viability, T/C (second compound 1 µM, first compound 0.03 µM): 12% | viability, T/C (second compound 1 µM, first compound 0.0949 µM): 9.05% | viability, T/C (second compound 1 µM, first compound 0.3 µM): 9.65% | viability, T/C (second compound 1 µM, first compound 0.949 µM): 10.3% | viability, T/C (second compound 1 µM, first compound 3 µM): 10.7% | viability, T/C (second compound 3.16 µM, first compound 0.00949 µM): 11.4% | viability, T/C (second compound 3.16 µM, first compound 0.03 µM): 11.7% | viability, T/C (second compound 3.16 µM, first compound 0.0949 µM): 10.1% | viability, T/C (second compound 3.16 µM, first compound 0.3 µM): 10.2% | viability, T/C (second compound 3.16 µM, first compound 0.949 µM): 11.5% | viability, T/C (second compound 3.16 µM, first compound 3 µM): 10.8% | viability, T/C (second compound 10 µM, first compound 0.00949 µM): 13.1% | viability, T/C (second compound 10 µM, first compound 0.03 µM): 11.8% | viability, T/C (second compound 10 µM, first compound 0.0949 µM): 12.8% | viability, T/C (second compound 10 µM, first compound 0.3 µM): 10.9% | viability, T/C (second compound 10 µM, first compound 0.949 µM): 12% | viability, T/C (second compound 10 µM, first compound 3 µM): 11.9%
